Results reported in PubChem BioAssay AID790 (SRMLSC, 2007).
Active and inactive are the calls of the source. The rule behind the calls is not given here.

What was measured:
[1] = vps1Δ single mutant yeast growth suppression – S. cerevisiae, background strain comparison, dose response (AID 790); settings: S. cerevisiae vps1Δ mutant growth inhibition; measured here: background strain growth inhibition
[2] = test system: S. cerevisiae vps1Δ mutant growth inhibition; assay: as above

SMILES | IC50 [1] [µM] | IC50 [2]
CCOC(=O)C1CCN(Cc2cnc(Oc3ccc(Cl)cc3C)s2)CC1 | > 10 | > 10 µM (inactive)
CN1C(=O)/C(=C/c2cccn2-c2ccc3ccccc3c2)C(=O)NC1=S | 6.58 | 14.2 µM (inactive)
C=C(C)C1CC=C(CN2CCC(C(=O)OCC)CC2)CC1 (stereo not given) | > 10 | > 10 µM (inactive)
O=C(Cn1ncc2c3ccccc3n(Cc3ccccc3F)c2c1=O)N1CCC2(CC1)OCCO2 | > 10 | > 10 µM (inactive)
CCOC(=O)N1CCN(c2ccc(S(=O)(=O)N(Cc3ccccc3)Cc3ccccc3)cn2)CC1 | > 10 | > 10 µM (inactive)
CCC(C)(C)n1nnnc1C(c1cc2cc3c(cc2[nH]c1=O)OCO3)N1CCN(C)CC1 (stereo not given) | > 10 | > 10 µM (inactive)
CCOC(=O)C(NC(C)=O)(Nc1ccc(S(=O)(=O)Nc2onc(C)c2C)cc1)C(F)(F)F (stereo not given) | > 10 | > 10 µM (inactive)
O=C(Cc1cccs1)Nc1nc2c(s1)CCCC2 | > 10 | > 10 µM (inactive)
COCCNc1cc(C)nc2c3c(C)cc(C)nc3nn12 | > 10 | > 10 µM (inactive)
CC(C)(C)n1nnnc1CN(Cc1cccnc1)Cc1ccccc1Cl | > 10 | > 10 µM (inactive)
CN1/C(=C/C2CC(=O)NC2=O)C(C)(C)c2ccccc21 (stereo not given) | > 10 | > 10 µM (inactive)
CCN(CC)c1ccc(-c2nc3cnccc3n2C)cc1 | > 10 | > 10 µM (inactive)
CCC(C)c1ccc(OCCCCN2CCOCC2)cc1 (stereo not given) | > 10 | > 10 µM (inactive)
COC(=O)C1=CN(CCCN2CCCC2=O)C=C(C(=O)OC)C1c1ccccc1C(F)(F)F | > 10 | > 10 µM (inactive)
Cc1ccc(S(=O)(=O)NC(CC(C)C)C(=O)Oc2ccc3c4c(c(=O)oc3c2)CCC4)cc1 (stereo not given) | > 10 | > 10 µM (inactive)
O=C(COc1ccc(Cl)cc1)Nc1ccc(N2CCN(C(=O)c3ccco3)CC2)cc1 | > 10 | > 10 µM (inactive)
COc1cc2[nH]c(=S)n(CCCN3CCOCC3)c(=O)c2cc1OC | > 10 | > 10 µM (inactive)
CCc1ccc(N(C(=O)c2csnn2)C(C(=O)NC(C)(C)C)c2ccncc2)cc1 (stereo not given) | > 10 | > 10 µM (inactive)
Cc1ccc(S(=O)(=O)N2CCN(C3CCN(Cc4ccccc4)CC3)CC2)cc1 | > 10 | > 10 µM (inactive)
Clc1ccc(Cn2nnc(-c3ccc(CN4CCOCC4)cc3)n2)cc1 | > 10 | > 10 µM (inactive)
CC1CC(C)CN(CC(C)(C)NS(=O)(=O)c2ccc(Cl)cc2)C1 (stereo not given) | > 10 | > 10 µM (inactive)
CN1CCN(CCCNC(=O)Cn2nc(-c3ccccc3)ccc2=O)CC1 | > 10 | > 10 µM (inactive)
c1ccc(-c2ccc(-c3cnc4n3CCCCC4)cc2)cc1 | > 10 | > 10 µM (inactive)
COc1ccc(Cl)cc1NC(=O)C(C)N1CCN(C/C=C/c2ccccc2)CC1 (stereo not given) | 15 | > 10 µM (inactive)
Cc1cc2ncn(CC(O)COc3cccc(C(=O)O)c3)c2cc1C (stereo not given) | > 10 | > 10 µM (inactive)
COc1ccc(Nc2nc(N)nc(CSc3nnc(N)s3)n2)cc1 | > 10 | > 10 µM (inactive)
O=[N+]([O-])c1cc(C(F)(F)F)ccc1N/N=C/c1cc2ccccc2nc1Cl | > 10 | > 10 µM (inactive)

SMILES | IC50 [1] [µM] | IC50 [2]
Cc1c(C)c2cc(Cl)c(O)c(CN3CCN(C)CC3)c2oc1=O | > 10 | > 10 µM (inactive)
Fc1ccc(-c2noc(C3CCN(Cc4cccnc4)CC3)n2)cc1 | > 10 | > 10 µM (inactive)
CCN(CC)C(=O)C1CCN(Cc2ccc(Br)cc2)CC1 | > 10 | > 10 µM (inactive)
COc1ccc(C(=O)Nc2ccc(Cl)cc2C(=O)N2CCCC(C)C2)cc1 (stereo not given) | > 10 | > 10 µM (inactive)
CCCCCCCCNc1ncnc2ccccc12 | 14.8 | > 10 µM (inactive)
COc1cc(CN2CCN(c3ccc(C)cc3)CC2)cc([N+](=O)[O-])c1O | > 10 | > 10 µM (inactive)
Cc1cc(OCC(F)(F)C(F)(F)C(F)(F)C(F)(F)C(F)(F)C(F)F)nc(N)n1 | > 10 | > 10 µM (inactive)
Cn1c2ccc(Cl)cc2c2nc3ccccc3nc21 | > 10 | > 10 µM (inactive)
CCOC(=O)c1cccnc1SCc1cc(=O)n2ccccc2n1 | > 10 | > 10 µM (inactive)
O=C(OCn1ncc(Cl)c(Cl)c1=O)c1ccc(C(F)(F)F)cc1 | > 10 | > 10 µM (inactive)
CCOCCCNC(=O)c1cc2sc(Cl)cc2n1CC | > 10 | > 10 µM (inactive)
Cc1ccc(S(=O)(=O)N(CC(=O)N2CCC(C(N)=O)CC2)c2cccc(C(F)(F)F)c2)cc1 | > 10 | > 10 µM (inactive)
CCOCCCNC(=O)C1CCN(C(=O)N(C)C)CC1 | > 10 | > 10 µM (inactive)
O=C(NC1CCN(Cc2ccccc2)CC1)C1COc2ccccc2O1 (stereo not given) | > 10 | > 10 µM (inactive)
O=S(=O)(c1cnccc1N1CCN(/N=C/c2ccc(Br)cc2)CC1)N1CCCCC1 | > 10 | > 10 µM (inactive)
O=C(Nc1cccc(Cl)c1)N1CCN(C/C=C/c2ccccc2)CC1 | > 10 | > 10 µM (inactive)
N#Cc1nc(COc2ccc(-c3ccccc3)cc2)oc1NCCCN1CCOCC1 | 15.4 | 21.4 µM (inactive)
O=C(CC(=O)c1cc(Cl)ccc1O)c1ccccc1 | 12.7 | 2.11 µM
Cc1c(Cl)c([N+](=O)[O-])nn1Cc1ccc(C(=O)N/N=C\c2cccc(Br)c2)o1 | > 10 | < 0.049 µM
O=Cc1cc2ccccc2nc1SCc1ccc(Cl)cc1 | > 10 | > 10 µM (inactive)
COc1cccc(NC(=O)C2CCCN2C(=O)OCc2ccccc2)c1 (stereo not given) | > 10 | > 10 µM (inactive)
COc1cccc(OCCCCN2CC(C)OC(C)C2)c1 (stereo not given) | > 10 | > 10 µM (inactive)
CCCC(=O)Nc1ccc(Cl)c(NC(=O)c2cccnc2Cl)c1 | > 10 | > 10 µM (inactive)
Cc1ccc(C(C)C)c(OCCCN2CC(C)OC(C)C2)c1 (stereo not given) | > 10 | > 10 µM (inactive)
C/C(=N\N=C(/N)SC1CC(=O)N(c2ccc(Cl)c(Cl)c2)C1=O)c1cccs1 (stereo not given) | 5.98 | 4.46 µM
O=c1c2cccc3c2c(nn1CN1CCOCC1)-c1ccccc1-3 | > 10 | > 10 µM (inactive)
C/C(CCC12CC3CC(CC(C3)C1)C2)=N\NC(N)=S | 5.28 | 12.7 µM (inactive)

SMILES | IC50 [1] [µM] | IC50 [2]
O=C(O)Cn1c(SCCOc2ccccc2F)nc2ccccc21 | > 10 | > 10 µM (inactive)
O=C(Nc1ccccc1)C1=C(O)CC(c2ccco2)CC1=Nc1ccccc1 (stereo not given) | > 10 | > 10 µM (inactive)
O=C1CC(N2CCN(c3ccc(Cl)c(Cl)c3)CC2)C(=O)N1 (stereo not given) | > 10 | 15.3 µM
COc1ccc(NC(=O)c2ccc(CN3CCN(c4ccccc4)CC3)cc2)cc1 | > 10 | > 10 µM (inactive)
O=C(Nc1nnc(-c2ccc3c(c2)CCCC3)o1)c1ccc(Cl)cc1Cl | 3.46 | 1.18 µM
N#CC1=C(N)NC(SCc2ccc(F)cc2)=C(C#N)C12CCCCC2 | 16.3 | 2.12 µM
CCC(C)(C)NC(=O)CN(C(=O)CCC(=O)Nc1ccccn1)c1ccc(F)c(Cl)c1 | > 10 | > 10 µM (inactive)
O=C(Nc1nnc(-c2ccc3c(c2)CCCC3)o1)c1ccccc1Cl | 10.7 | 1.58 µM
NC(=O)c1ccsc1NC(=O)c1nc(-c2ccccc2)n(-c2ccccc2)n1 | > 10 | > 10 µM (inactive)
N#CC1=C(N)C(C#N)(C#N)C(c2cccnc2)C2CC(c3ccccc3)CC=C12 (stereo not given) | 2.97 | 3.03 µM (inactive)
Cc1ccc(C)c(NS(=O)(=O)c2cc(C(=O)N3CCc4ccccc4C3)ccc2Cl)c1 | 6.88 | > 10 µM (inactive)
Cc1cc(C(C)(C)C)ccc1OCCN1CCCC1 | > 10 | > 10 µM (inactive)
O=C(Nc1nnc(C2CC2)o1)c1ccc(S(=O)(=O)N2CCCc3ccccc32)cc1 | 3.17 | 11.9 µM (inactive)
Clc1ccc2[nH]c3c(NCC4CCCO4)ncnc3c2c1 (stereo not given) | > 10 | > 10 µM (inactive)
CCOC(=O)Cn1cc(C=O)c2ccccc21 | > 10 | > 10 µM (inactive)
C=CCc1ccccc1OCC(O)CN1CCN(Cc2ccc3c(c2)OCO3)CC1 (stereo not given) | > 10 | > 10 µM (inactive)
Fc1ccc(Cn2nnc(-c3ccc(CN4CCOCC4)cc3)n2)cc1 | > 10 | > 10 µM (inactive)
C=CCc1ccc(OCCCCN2CC(C)OC(C)C2)c(OC)c1 (stereo not given) | > 10 | > 10 µM (inactive)
CCOC(=O)c1cc2c(ccn2C)n1CC(=O)N1CCN(c2ccccc2OC)CC1 | > 10 | > 10 µM (inactive)
COc1ccc(C2=NC(C(F)(F)F)(C(F)(F)F)c3c(n(C)c(=O)n(C)c3=O)N2)cc1 | > 10 | > 10 µM (inactive)
CCCCOc1ccc(-c2ncc(C(=O)O)c(C)n2)cc1 | > 10 | > 10 µM (inactive)
c1ccc2c(c1)oc1c(Nc3ccc(CN4CCOCC4)cc3)ncnc12 | > 10 | > 10 µM (inactive)
FC(F)(F)COc1nc(N2CCCCC2)nc(N2CCNCC2)n1 | > 10 | > 10 µM (inactive)
Cc1ccc(C2N(c3ccc(Cl)c(Cl)c3)C(=O)C3CCCN32)o1 (stereo not given) | > 10 | > 10 µM (inactive)
O=C1OCC(CO)(CO)N=C1NNc1ccc(Cl)c(Cl)c1 | 3.35 | 2.43 µM
CCCOc1ccccc1N/C(=N/c1nc(C)cc(C)n1)NC(=O)COc1ccc(OC)cc1 | > 10 | > 10 µM (inactive)
